Results as given in the supplement of paper PMC3974653.
Where a name gives a salt, the structure may show the parent alone.

Tested on: MTT (mouse pheochromocytoma)
Assay: IC50 of cell viability (ATP content)
Details: (24 or 48 h)
Summary of the method: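 After overnight culture at 37°C, 5% CO2 in white 1536-well plates, MTT mouse pheochromocytoma cells were given 23 nl of library compound in DMSO by pintool across 8 concentrations, spanning final 0.5 nM to 46 µM. Following 24 or 48 hrs, CellTiter-Glo luminescence was read after 15 minutes and normalised against positive-control (100%) and DMSO (0%) wells. A four-parameter logistic model provided the IC50.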

| IC50 of cell viability | Compound |
| --- | --- |
| > 46 µM | N[C@@H](CCC(=O)O)C(=O)O [L-GLUTAMIC ACID] |
| > 46 µM | CCCCCC(O)/C=C/C=O (racemic) [(±)-4-Hydroxynon-2-enal] |
| > 46 µM | CN1CCN(CC1)C2=C(F)C=C3C(=O)\C(=C/N4CCSC2=C34)C(O)=O [RUFLOXACINUM] |
| > 46 µM | COc1ccccc1N1CCN(CCCC(=O)c2ccc(F)cc2)CC1 [FLUANISONUM] |
| > 46 µM | Cc1c(F)c(N2CCNC(C)C2)cc2c1c(=O)c(C(=O)O)cn2C1CC1 (configuration not stated) [GREPAFLOXACIN HYDROCHLORIDE] |
| > 46 µM | NC(C(=O)O)C(O)c1ccc(O)c(O)c1 (configuration not stated) [Droxidopa] |
| > 46 µM | O=[N+]([O-])c1ccc(Oc2ccc(N=C=S)cc2)cc1 [Nitroscanate] |
| > 46 µM | C=CS(=O)(=O)[O-] [Vinylsulfonic acid sodium salt solution] |
| > 46 µM | N=C(N)Nc1ccc(C(=O)Oc2ccc3cc(C(=N)N)ccc3c2)cc1 [NAFAMOSTAT MESILATE] |
| > 46 µM | O=C(O)c1cc2ccccc2c(Cc2c(O)c(C(=O)O)cc3ccccc23)c1O [Pamoic acid] |
| > 46 µM | OCC(O)CS (configuration not stated) [THIOGLYCEROL] |
| > 46 µM | COc1ccc(C(=O)Nc2ccccc2CCC2CCCCN2C)cc1 (configuration not stated) [Encainide hydrochloride] |
| > 46 µM | C=C1CC[C@H](O)C/C1=C/C=C1\CCC[C@]2(C)[C@@H]([C@H](C)CCCC(C)C)CC[C@@H]12 [CHOLECALCIFEROL] |
| > 46 µM | N[S+]([O-])(=O)C1=C(Cl)C=C2\N=C/N[S+]([O-])(=O)C2=C1 [Chlorothiazide] |
| > 46 µM | CN[C@@H](CC(C)C)C(=O)N[C@@H]1C(=O)N[C@H](CC(N)=O)C(=O)N[C@H]2C(=O)N[C@@H]3C(=O)N[C@H](C(=O)N[C@H](C(=O)O)c4cc(O)cc(O)c4-c4cc3ccc4O)[C@H](O)c3ccc(c(Cl)c3)Oc3cc2cc(c3O[C@@H]2O[C@@H](CO)[C@@H](O)[C@@H](O)[C@H]2O[C@H]2C[C@](C)(N)[C@H](O)[C@H](C)O2)Oc2ccc(cc2Cl)[C@@H]1O [Vancomycin hydrochloride] |
| > 46 µM | COC(=O)C1=C(C)NC(C)=C(C(=O)O[C@H]2CCN(Cc3ccccc3)C2)C1c1cccc([N+](=O)[O-])c1 (some centres not stated) [Barnidipine] |
| > 46 µM | O=C1CC\C(=N/N1)C2=CC=C(C=C2)[N]3C=CN=C3 [Imazodan] |
| > 46 µM | OCCOCCOCCO [TRIETHYLENE GLYCOL] |
| > 46 µM | COc1ccc(-c2nc3ccc(C4=C(C)CC(=O)NN4)cc3[nH]2)cc1 [PIMOBENDAN] |
| > 46 µM | CC(=O)O[C@H]1CC[C@]\2(C)C3CC[C@@]\4(C)C(C\C=C4C5=CC=CN=C5)C3C\C=C2C1 (some centres not stated) [Abiraterone Acetate] |
| > 46 µM | Cc1c(C(=O)NCCO)[n+](=O)c2ccccc2n1[O-] |
| > 46 µM | CO/N=C(\C(=O)N[C@@H]1C(=O)N2C(C(=O)OCOC(=O)C(C)(C)C)=C(C)CS[C@H]12)c1csc(N)n1 [CEFETAMET PIVOXIL HCl] |
| > 46 µM | CCCCc1oc2ccc(N[S+](C)(=O)[O-])cc2c1C(=O)c1ccc(OCCCN(CCCC)CCCC)cc1 [Dronedarone] |
| > 46 µM | COCCCOc1cc(C[C@@H](C[C@H](N)[C@@H](O)C[C@H](C(=O)NCC(C)(C)C(N)=O)C(C)C)C(C)C)ccc1OC [Aliskiren] |

| IC50 of cell viability | Compound |
| --- | --- |
| > 46 µM | CC[N+](C)(CC)CCOC(=O)C(O)(c1ccccc1)C1CCCCC1 (configuration not stated) [OXYPHENONIUM BROMIDE] |
| > 46 µM | c1ccc2ccccc2c1 [Naphthalene] |
| > 46 µM | CC(=O)Nc1ccc([S+](=O)([O-])Nc2ccc([N+](=O)[O-])cc2)cc1 [SULFANITRAN] |
| > 46 µM | NC[C@@H]1O[C@@H](O[C@H]2[C@@H](O)[C@H](O[C@@H]3O[C@@H](CO)[C@H](O)[C@H](N)[C@@H]3O)[C@@H](N)C[C@H]2N)[C@H](N)C[C@@H]1O [Tobramycin] |
| > 46 µM | COC(=O)[C@@H]1CC2=CC(=O)CC[C@]2(C)[C@@]23O[C@@H]2C[C@@]2(C)[C@@H](CC[C@@]24CCC(=O)O4)[C@H]13 [Eplerenone] |
| > 46 µM | CCC(C)(C)C(=O)O[C@@H]1C[C@H](C)\C=C2\C=C/[C@H](C)[C@@H](CC[C@H]3C[C@@H](O)CC(=O)O3)[C@@H]12 [Simvastatin] |
| > 46 µM | CO/N=C(/C(=O)NC1C(=O)N2C(C(=O)[O-])=C(CSc3nc(=O)c([O-])nn3C)CSC12)c1csc(N)n1.O.O.O.[Na+].[Na+] (configuration not stated) [CEFTRIAXONE SODIUM TRIHYDRATE] |
| > 46 µM | CC/1=C/CC2CC1C2(C)C (stereo not drawn) [alpha-Pinene] |
| > 46 µM | CC[C@H](C)[C@H](NC(=O)[C@H](CO)NC(=O)[C@H](CC(N)=O)NC(=O)[C@H](CC(C)C)NC(=O)[C@H](Cc1ccc(O)cc1)NC(=O)[C@H](CCCCN)NC(=O)[C@H](CCCCN)NC(=O)[C@@H](NC(=O)[C@H](C)NC(=O)[C@H](CCSC)NC(=O)[C@H](CCC(N)=O)NC(=O)[C@H](CCCCN)NC(=O)[C@H](CCCNC(=N)N)NC(=O)[C@H](CC(C)C)NC(=O)[C@H](CCCNC(=N)N)NC(=O)[C@@H](NC(=O)[C@H](Cc1ccc(O)cc1)NC(=O)[C@H](CC(N)=O)NC(=O)[C@H](CC(=O)O)NC(=O)[C@@H](NC(=O)[C@H](Cc1ccccc1)NC(=O)[C@@H](NC(=O)[C@H](C)NC(=O)[C@H](CC(=O)O)NC(=O)[C@H](CO)NC(=O)[C@@H](N)Cc1c[nH]cn1)C(C)C)[C@@H](C)O)[C@@H](C)O)C(C)C)C(=O)N[C@@H](CC(C)C)C(=O)N[C@@H](CC(N)=O)C(=O)O [AVIPTADIL] |
| > 46 µM | FC(F)OC(Cl)C(F)(F)F (configuration not stated) [ISOFLURANE] |
| > 46 µM | NCCCCC(NC(=O)C1CCCN1C(=O)C1CSSCC(N)C(=O)NC(Cc2ccccc2)C(=O)NC(Cc2ccccc2)C(=O)NC(CCC(N)=O)C(=O)NC(CC(N)=O)C(=O)N1)C(=O)NCC(N)=O (configuration not stated) [FELYPRESSIN] |
| > 46 µM | Cc1cnc(C(=O)NCCc2ccc([S+](=O)([O-])NC(=O)NC3CCCCC3)cc2)cn1 [GLIPIZIDE] |
| > 46 µM | CN(C)CCN(Cc1ccc(Cl)cc1)c1ccccn1 [Chloropyramine hydrochloride] |
| > 46 µM | Cc1nnc(C(C)C)n1C1C[C@H]2CC[C@@H](C1)N2CC[C@H](NC(=O)C1CCC(F)(F)CC1)c1ccccc1 (some centres not stated) [Maraviroc] |
| > 46 µM | O=C(O)c1ccc(N[C@@H]2OC[C@@H](O)[C@@H](O)[C@@H]2O)cc1 [Benaxibine] |
| > 46 µM | CC[C@H](C)[C@H](N)\C1=N\[C@@H](CS1)C(=O)N[C@@H](CC(C)C)C(=O)N[C@@H](CCC(O)=O)C(=O)N[C@H]([C@@H](C)CC)C(=O)N[C@@H]2CCCCNC(=O)[C@@H](CC(N)=O)NC(=O)[C@@H](CC(O)=O)NC(=O)[C@@H](CC3=CN=C[NH]3)NC(=O)[C@@H](CC4=CC=CC=C4)NC(=O)[C@H](NC(=O)[C@@H](CCCN)NC2=O)[C@@H](C)CC [Bacitracin] |
| > 46 µM | Oc1cccc(-c2c3nc(c(-c4cccc(O)c4)c4ccc([nH]4)c(-c4cccc(O)c4)c4nc(c(-c5cccc(O)c5)c5ccc2[nH]5)CC4)C=C3)c1 [Temoporfin] |
| > 46 µM | NC(=O)C1CC2(NC(=O)NC2=O)c2cc(F)ccc2O1 (configuration not stated) [FIDARESTAT] |
| > 46 µM | O=C(O)Cc1ccc(CCN[S+](=O)([O-])c2ccc(Cl)cc2)cc1 [DALTROBANUM] |
| > 46 µM | CCN(CC)[S+](=O)([O-])c1ccc(C(=O)O)cc1 [Etebenecid] |
| > 46 µM | NNc1nnc(NN)c2ccccc12 [DIHYDRALAZINUM] |
| > 46 µM | Cc1cc(O)c(C(C)C)cc1Cl [CHLOROTHYMOL] |
| > 46 µM | CN/C(=N\c1ccc(C2=NNC(=O)CC2C)cc1)NC#N (configuration not stated) [Siguazodan] |

| Compound | IC50 of cell viability |
| --- | --- |
| C1CN(P2(N3CC3)=NP(N3CC3)(N3CC3)=NP(N3CC3)(N3CC3)=N2)CCO1 (configuration not stated) [Fotretamine] | > 46 µM |
| O=C1CN=C(c2ccccc2)c2cc([N+](=O)[O-])ccc2N1 [nitrazepam] | > 46 µM |
| C\C(C)=C\[C@@H]1[C@@H](C(=O)OCN2C(=O)CN(CC#C)C2=O)C1(C)C [Imiprothrin] | > 46 µM |
| COc1ccc2[nH]cc(CCN(C(C)C)C(C)C)c2c1 [5-Methoxy-N,N-diisopropyltryptamine] | > 46 µM |
| CC(=O)OC\C1=C(\[N@]2[C@@H](SC1)[C@H](N)C2=O)C(O)=O [Cephalosporanic acid, 7-amino] | > 46 µM |
| CC(C)NCC(O)c1ccc(N)c(C#N)c1 (configuration not stated) [CIMATEROL] | > 46 µM |
| C[C@H]1C2Cc3ccc(O)cc3[C@]1(C)CCN2CC1CC1 (single isomer, unassigned; (+)) [(+)-Cyclazocine] | > 46 µM |
| NC1(c2ccccc2)CCCCC1 [1-Phenylcyclohexyl] | > 46 µM |
| CCCCCCCCCCCC(=O)[O][Sn]([CH2]CCC)([CH2]CCC)[O]C(=O)CCCCCCCCCCC [DIBUTYLTIN DILAURATE] | > 46 µM |
| c1ccc2sc(SNC3CCCCC3)nc2c1 [N-CYCLOHEXYLBENZOTHIAZYLSULFENAMIDE] | > 46 µM |
| CC(Cc1ccccc1)NCc1ccccc1Cl (configuration not stated) [CLOBENZOREX] | > 46 µM |
| CC(C)(N)Cc1ccc(Cl)cc1 [Chlorphentermine hydrochloride] | > 46 µM |
| ClC1=CC=C2[N]3C=NN=C3C\N=C(\C4=CC=CC=C4)C2=C1 [ESTAZOLAM] | > 46 µM |
| CCN[C@@H](C)Cc1cccc(C(F)(F)F)c1 [(+)-Fenfluramine] | > 46 µM |
| CC(C)NCC(O)c1ccc([N+](=O)[O-])cc1 (configuration not stated) [Nifenalol] | > 46 µM |
